Laboratory results as given in PubChem BioAssay (NCI).
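Each compound was tested at five concentrations against cells in 96-well plates for 48 hours. Here, GI50 denotes the concentration required for 50% inhibition of growth. TGI is the concentration that stops growth completely.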

Assays:
Test in all cases: NCI anticancer screen, dose series, 48 h
M14 melanoma = system: M14 melanoma
A498 renal = system: A498 renal
SK-MEL-28 melanoma = system: SK-MEL-28 melanoma
SNB-75 CNS = system: SNB-75 CNS
MCF7 breast = system: MCF7 breast
HL-60(TB) leukemia = system: HL-60(TB) leukemia
RPMI-8226 leukemia = system: RPMI-8226 leukemia
TK-10 renal = system: TK-10 renal
OVCAR-8 ovarian = system: OVCAR-8 ovarian
HT29 colon = system: HT29 colon

Structure (SMILES)	GI50 (M14 melanoma) [µM]	TGI (M14 melanoma) [µM]	GI50 (A498 renal) [µM]	TGI (A498 renal) [µM]	GI50 (SK-MEL-28 melanoma) [µM]	TGI (SK-MEL-28 melanoma) [µM]	GI50 (SNB-75 CNS) [µM]	TGI (SNB-75 CNS) [µM]	GI50 (MCF7 breast) [µM]	TGI (MCF7 breast) [µM]	GI50 (HL-60(TB) leukemia) [µM]	TGI (HL-60(TB) leukemia) [µM]	GI50 (RPMI-8226 leukemia) [µM]	TGI (RPMI-8226 leukemia) [µM]	GI50 (TK-10 renal) [µM]	TGI (TK-10 renal) [µM]	TGI (OVCAR-8 ovarian) [µM]	TGI (HT29 colon) [µM]	GI50 (OVCAR-8 ovarian) [µM]	GI50 (HT29 colon) [µM]
C[CH2][Hg][S]c1ccccc1C(=O)O	1.36	2.74	1.64	4.04	1.71	3.69	2.98	10.8	1.21	2.62	0.314	1.18	1.28	4.24	1.42	2.73				
CN=C1OC2(c3ccccc3)C3=C(OC(=NC)N2C)C(=O)OC3(c2ccccc2)N1C (centres undefined)		> 100		> 100		> 100		> 100		> 100		> 100				> 100	> 100	> 100		
C=CCc1cc(Nc2c3ccc(Cl)cc3nc3ccc(OC)cc23)cc(CN(CC)CC)c1O	1.9	5.3	1.68	5.84	3.37	18.1	3.85	19.3	2.1	7.94			0.348	2.38	1.97	11.1		10.1	1.44	1.75
CCOC(=O)c1cc2c(cc1Cl)SC(=Nc1ccccc1)N(S(=O)(=O)c1ccc(Br)s1)S2(=O)=O	15.2	35	16.2	34	24.1	64.5	23.4	60.8	16.5	45.8			12.1	41.9	15.9	30.4	39.3	> 100	17	31.2
O=C(O)c1ccccc1NC(=S)c1ccccc1		> 100		> 100						> 100		98.3		75.8		> 100	> 100	> 100		
COc1cc(-c2nn(-c3cccc(NC(=O)CCN4CCN(Cc5ccccc5)CC4)c3)cc2-c2ccncc2)ccc1Cl	0.696	2.21	1.41	6.71	1.33	2.84	1.55	8.73	0.386	3.27	0.632	4.21			2.93	12.2	11.1	1.55	2.68	0.314
Nc1n[nH]c2ccc([C@@H]3Nc4cc5c(cc4[C@H]4C6CCC(C6)[C@@H]34)C(=O)NC5)cc12 (some centres undefined)	0.287	> 43.1	0.13	0.737	4.17	> 100	0.718	> 100	0.18	> 100	0.282				70.1	> 100	> 100	> 100	0.445	0.393
N#CCCC1(CCC#N)CCCCCCCCC(CCC#N)(CCC#N)C(O)C1O (centres undefined)		> 100		> 100		> 100		> 100		> 100				58.2		> 100	> 100	> 100		
COc1ccc(-c2cc(=O)c3c(O)cccc3o2)c(OC)c1OC		> 100		82.9		> 100		75.5				> 100		> 100		> 100	> 100	> 100		
C=C1[C@@H](O)O[C@H]2[C@H]1C[C@H](OC(C)=O)[C@]13C(=O)O[C@H]4C[C@](C)(O)[C@H]([C@H]41)C31C=C(C)[C@]2(O)O1					61	> 100			25.8	54.7	61.8	> 100	24.2	> 100			58.8	> 100	22.7	75.4
COc1ccc(OC(=O)CC2Cc3cc(OC)c(OC)c(OC)c3-c3ccc(SC)c(=O)cc32)cc1 (centres undefined)		> 100		2.57		98.9		> 100				2.35		14.4		> 100	> 37.1	> 100		
Cc1ccc(C2C3Cc4ccccc4C3=NN2c2ccc(S(=O)(=O)/N=c3\scc(-c4ccccc4)n3-c3ccccc3)cc2)cc1 (centres undefined)	30.6	> 100	14.9	36.1					5.71	33.7	14.5	31.5	13.4	35.6	19.1	63.6	58.5		21.9	
COc1ccc(C(=O)/C=C/c2ccc(OCC#N)cc2)cc1		42		96.3		32.9		> 100		36.1						> 100	> 100	> 100		
